This note sets out measurements from US8288371B2, “Ortho pyrrolidine, benzyl-substituted heterocycle CCR1 antagonists for autoimmune diseases and inflammation” (Pharmacopeia, LLC, priority 2007, dated 2012).

Each structure is given as a SMILES string. pIC50: −log10 of the molar value.

This assay has as its target T1, human CCR1 (Homo sapiens, UniProt P32246).
T1 sequence (P32246 1-355): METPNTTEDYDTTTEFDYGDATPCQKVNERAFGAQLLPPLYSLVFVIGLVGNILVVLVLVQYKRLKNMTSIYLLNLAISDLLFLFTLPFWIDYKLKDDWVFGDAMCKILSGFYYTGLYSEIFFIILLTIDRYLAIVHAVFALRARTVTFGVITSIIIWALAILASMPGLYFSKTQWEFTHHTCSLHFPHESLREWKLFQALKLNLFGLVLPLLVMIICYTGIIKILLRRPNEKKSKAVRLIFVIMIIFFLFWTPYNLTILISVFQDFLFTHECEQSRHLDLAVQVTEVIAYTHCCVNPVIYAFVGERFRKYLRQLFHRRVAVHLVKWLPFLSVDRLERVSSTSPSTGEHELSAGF
The experiment in a line: CCR1 binding protocol (SPA, [125I]-MIP-1α displacement). To be noted: cell membrane expressing human CCR1, 0.1 nM [125I]-MIP-1α, 4 hours at ambient temperature; read-out: Relative potency (IC50). The method, then: The following protocol was used to test compounds for CCR1 binding. A mixture, including scintillation proximity assay (SPA) beads and cell membrane expressing human CCR1, was prepared in assay buffer (130 mM NaCl+5 mM KCl+1 mM MnCl+50 mM Tris HCl at pH 7.4+0.1% bovine serum albumin (BSA)) at the ratio of 50 μg/ml membrane to 10 mg/ml SPA beads. 10 μl of the mixture was transferred to each well of a 384-well assay plate yielding a final concentration for the membrane and SPA beads of 0.5 μg/well and 100 μg/well, respectively
To generate different concentrations of the test compound, compound stocks were prepared using 10 step ½ log dilutions with a high concentration of 10 mM in DMSO and the lowest concentration being DMSO only without compound. An intermediate 40× dilution was then prepared in the assay buffer. The compound was then transferred at 10 μl/well to the assay plate. 0.5 nM [^125 I]-labeled macrophage inflammatory protein-1α (MIP-1α, an endogenous CCR1 ligand) in the assay buffer was transferred to the assay plate at 5 μl/well, for a final ligand concentration of 0.1 nM. The assay plate was then centrifuged at 2500 rpm for 2 minutes and incubated for 4 hours at ambient temperature, at which time the raw data was recorded using microbeta. The IC50 was then calculated using Graphpad Prism.
On to `Cc1noc([C@H]2CCCN2C(=O)Nc2c(C)noc2C)c1Cc1ccc(Cl)cc1` [Compound 1], for which the negative-log IC50 (pIC50) – broadly, the negative decadic logarithm of the IC50, by convention in mol/L – was above 7.30.

Regarding `Cc1noc(-c2ccccc2)c1NC(=O)N1CCC[C@@H]1c1oncc1Cc1ccc(Cl)cc1` [Compound 2], the negative-log IC50 (pIC50) is 6.30 to 7.30.

For `CN1C(=O)COc2ccc(NC(=O)N3CCC[C@@H]3c3oncc3Cc3ccc(Cl)cc3)cc21` [Compound 3], the pIC50 was 6.30 to 7.30.

With `O=C(N[C@H]1CCOc2cc(C(F)(F)F)ccc21)N1CCC[C@@H]1c1oncc1Cc1ccc(Cl)cc1` [Compound 4], the negative logarithm of the IC50 (pIC50) was 6.30 to 7.30.

Consider `O=C(Nc1ccc(C(F)(F)F)cc1)N1CCC[C@@H]1c1oncc1Cc1ccc(Cl)cc1` [Compound 5], for which the negative-log IC50 (pIC50) is 6.30 to 7.30.

`Cc1noc([C@H]2CCCN2C(=O)Nc2ccc(C(F)(F)F)cc2)c1Cc1ccc(Cl)cc1` [Compound 6]: the pIC50 was 5.30 to 6.30.

In the case of `Cc1noc(C)c1NC(=O)N1CCC[C@@H]1c1noc(C)c1Cc1ccc(Cl)cc1` [Compound 7], the pIC50 is 6.30 to 7.30.

As to `Cn1cc(Cc2ccc(Cl)cc2)c([C@H]2CCCN2C(=O)Nc2ccc(C(F)(F)F)cc2)n1` [Compound 8], the pIC50 was 6.30 to 7.30.

In the case of `Cc1noc(-c2ccccc2)c1NC(=O)N1CCC[C@@H]1c1nn(C)c(C)c1Cc1ccc(Cl)cc1` [Compound 9], the pIC50 is 5.30 to 6.30.

Regarding `O=C(Nc1ccc(C(F)(F)F)cc1)N1CCC[C@@H]1c1[nH]ncc1Cc1ccc(Cl)cc1` [Compound 10], the negative-log IC50 (pIC50) is 5.30 to 6.30.

In the case of `Cn1ncc(Cc2ccc(Cl)cc2)c1[C@H]1CCCN1C(=O)Nc1ccc(C(F)(F)F)cc1` [Compound 11], the pIC50 is 5.30 to 6.30.

On to `Cc1cc(C(F)(F)F)cc(C)c1NC(=O)N1CCC[C@@H]1c1ncncc1Cc1ccc(Cl)cc1` [Compound 12], for which the pIC50 is above 7.30.

On to `Cc1cc(Cl)cc(C)c1NC(=O)N1CCC[C@@H]1c1ncncc1Cc1ccc(Cl)cc1` [Compound 13], for which the pIC50 was above 7.30.

Consider `Cc1noc(-c2ccccc2)c1NC(=O)N1CCC[C@@H]1c1ncncc1Cc1ccc(Cl)cc1` [Compound 14], for which the pIC50 was above 7.30.

Regarding `Cc1onc(-c2ccccc2)c1NC(=O)N1CCC[C@@H]1c1ncncc1Cc1ccc(Cl)cc1` [Compound 15], the pIC50 is above 7.30.

In the case of `Cc1ncc(Cc2ccc(Cl)cc2)c([C@H]2CCCN2C(=O)Nc2c(C)cc(C(F)(F)F)cc2C)n1` [Compound 16], the pIC50 is 6.30 to 7.30.

Take `CN1C(=O)COc2ccc(NC(=O)N3CCC[C@@H]3c3ncncc3Cc3ccc(Cl)cc3)cc21` [Compound 17]: the pIC50 was 6.30 to 7.30.

Take `Cc1ncc(Cc2ccc(Cl)cc2)c([C@H]2CCCN2C(=O)Nc2c(C)cc(Cl)cc2C)n1` [Compound 18]: the negative logarithm of the IC50 (pIC50) was 6.30 to 7.30.

With `Cc1ncnc([C@H]2CCCN2C(=O)Nc2c(C)noc2C)c1Cc1ccc(Cl)cc1` [Compound 19], the pIC50 is 6.30 to 7.30.

Regarding `C[C@H](NC(=O)N1CCC[C@@H]1c1ncncc1Cc1ccc(Cl)cc1)c1ccc(C(F)(F)F)cc1` [Compound 20], the negative logarithm of the IC50 (pIC50) is 6.30 to 7.30.

Consider `Cc1ncc(Cc2ccc(Cl)cc2)c([C@H]2CCCN2C(=O)Nc2c(C)noc2-c2ccccc2)n1` [Compound 21], for which the pIC50 is 6.30 to 7.30.

Consider `O=C(N[C@H]1CCOc2c(F)cccc21)N1CCC[C@@H]1c1ncncc1Cc1ccc(Cl)cc1` [Compound 22], for which the pIC50 is 6.30 to 7.30.

In the case of `O=C(Nc1ccc(C(F)(F)F)cc1)N1CCC[C@@H]1c1ncncc1Cc1ccc(Cl)cc1` [Compound 23], the pIC50 is 6.30 to 7.30.

For `O=C(N[C@H]1CCOc2cc(C(F)(F)F)ccc21)N1CCC[C@@H]1c1ncncc1Cc1ccc(Cl)cc1` [Compound 24], the pIC50 is 6.30 to 7.30.

For `O=C(NCc1ccc(C(F)(F)F)cc1)N1CCC[C@@H]1c1ncncc1Cc1ccc(Cl)cc1` [Compound 25], the negative logarithm of the IC50 (pIC50) is 6.30 to 7.30.

For `Cc1ncnc([C@H]2CCCN2C(=O)NC2(c3ccccc3)CC2)c1Cc1ccc(Cl)cc1` [Compound 26], the pIC50 was 6.30 to 7.30.

In the case of `Cc1ncc(Cc2ccc(Cl)cc2)c([C@H]2CCCN2C(=O)Nc2ccc3c(c2)N(C)C(=O)CO3)n1` [Compound 27], the negative-log IC50 (pIC50) is 5.30 to 6.30.

For the compound `CC(C)(NC(=O)N1CCC[C@@H]1c1ncncc1Cc1ccc(Cl)cc1)c1ccccc1` [Compound 28], the pIC50 was 5.30 to 6.30.

As for `O=C(N[C@H]1CCCc2ccccc21)N1CCC[C@@H]1c1nccn1Cc1ccc(Cl)cc1` [Compound 29], the negative logarithm of the IC50 (pIC50) is above 7.30.

In the case of `Cc1cc(C(F)(F)F)cc(C)c1NC(=O)N1CCC[C@@H]1c1nccn1Cc1ccc(Cl)cc1` [Compound 30], the pIC50 was above 7.30.

Take `Cc1oc(-c2ccccc2)cc1NC(=O)N1CCC[C@@H]1c1nccn1Cc1ccc(Cl)cc1` [Compound 31]: the pIC50 is above 7.30.

For `O=C(NC1CCCOc2ccccc21)N1CCC[C@@H]1c1nccn1Cc1ccc(Cl)cc1` (stereo partly drawn) [Compound 32], the pIC50 is above 7.30.

Turning to `Cc1cc(Cl)cc(C)c1NC(=O)N1CCC[C@@H]1c1nccn1Cc1ccc(Cl)cc1` [Compound 33], the pIC50 is above 7.30.

Take `Cc1noc(-c2ccccc2)c1NC(=O)N1CCC[C@@H]1c1nccn1Cc1ccc(Cl)cc1` [Compound 34]: the pIC50 is above 7.30.

For the compound `Cc1onc(-c2ccccc2)c1NC(=O)N1CCC[C@@H]1c1nccn1Cc1ccc(Cl)cc1` [Compound 35], the pIC50 was above 7.30.

As for `Cc1nc(-c2ccccc2)sc1NC(=O)N1CCC[C@@H]1c1nccn1Cc1ccc(Cl)cc1` [Compound 36], the negative-log IC50 (pIC50) was above 7.30.

As to `CSc1ccc(NC(=O)N2CCC[C@@H]2c2nccn2Cc2ccc(Cl)cc2)cc1` [Compound 37], the negative logarithm of the IC50 (pIC50) is above 7.30.

For `O=C(Nc1ccc(C(F)(F)F)cc1)N1CCC[C@@H]1c1nccn1Cc1ccc(Cl)cc1` [Compound 38], the pIC50 was 6.30 to 7.30.

`O=C(Nc1ccc(OC(F)(F)F)cc1)N1CCC[C@@H]1c1nccn1Cc1ccc(Cl)cc1` [Compound 39]: the pIC50 is 6.30 to 7.30.

Take `O=C(Nc1ccc(SC(F)(F)F)cc1)N1CCC[C@@H]1c1nccn1Cc1ccc(Cl)cc1` [Compound 40]: the pIC50 was 6.30 to 7.30.

On to `O=C(Nc1ccc(Cl)c(C(F)(F)F)c1)N1CCC[C@@H]1c1nccn1Cc1ccc(Cl)cc1` [Compound 41], for which the pIC50 is 6.30 to 7.30.

With `N#C/N=C(\Nc1ccc(C(F)(F)F)cc1)N1CCC[C@@H]1c1nccn1Cc1ccc(Cl)cc1` [Compound 42], the pIC50 is 6.30 to 7.30.

Turning to `O=C(NCc1ccc(Cl)cc1Cl)N1CCC[C@@H]1c1nccn1Cc1ccc(Cl)cc1` [Compound 43], the pIC50 is 6.30 to 7.30.

Turning to `CC[C@H](NC(=O)N1CCC[C@@H]1c1nccn1Cc1ccc(Cl)cc1)c1ccc(C(F)(F)F)cc1` [Compound 44], the pIC50 was 6.30 to 7.30.

Take `Cc1cc(NC(=O)N2CCC[C@@H]2c2nccn2Cc2ccc(Cl)cc2)c(C(F)(F)F)o1` [Compound 45]: the pIC50 was 5.30 to 6.30.

Consider `Cc1ccc(Cn2ccnc2[C@H]2CCCN2C(=O)Nc2ccc(C(F)(F)F)cc2)cc1` [Compound 46], for which the negative logarithm of the IC50 (pIC50) was 5.30 to 6.30.

Take `O=C(Nc1ccc(C(F)(F)F)cc1)N1CCC[C@@H]1c1nccn1Cc1ccccc1` [Compound 47]: the pIC50 was 5.30 to 6.30.

With `O=C(N[C@H]1CCCc2ccccc21)N1CCC[C@@H]1c1nnnn1Cc1ccc(Cl)cc1` [Compound 48], the negative-log IC50 (pIC50) is above 7.30.

In the case of `CC1(C)CC(NC(=O)N2CCC[C@@H]2c2nnnn2Cc2ccc(Cl)cc2)c2ccccc2O1` (stereo partly drawn) [Compound 49], the pIC50 was 6.30 to 7.30.

Take `N#C/N=C(\N[C@H]1CCCc2ccccc21)N1CCC[C@@H]1c1nnnn1Cc1ccc(Cl)cc1` [Compound 50]: the pIC50 was 5.30 to 6.30.

As to `Cc1noc(-c2ccccc2)c1NC(=O)N1CCC[C@@H]1c1nnnn1Cc1ccc(Cl)cc1` [Compound 51], the pIC50 was above 7.30.

For `Cc1onc(-c2ccccc2)c1NC(=O)N1CCC[C@@H]1c1nnnn1Cc1ccc(Cl)cc1` [Compound 52], the negative-log IC50 (pIC50) was above 7.30.

`O=C(Nc1ccc(C(F)(F)F)cc1)N1CCC[C@@H]1c1nnnn1Cc1ccc(Cl)cc1` [Compound 53]: the pIC50 is above 7.30.

With `O=C(Nc1ccc(Cl)cc1F)N1CCC[C@@H]1c1nnnn1Cc1ccc(Cl)cc1` [Compound 54], the pIC50 is 6.30 to 7.30.

As to `O=C(N[C@H]1CCOc2cc(C(F)(F)F)ccc21)N1CCC[C@@H]1c1nnnn1Cc1ccc(Cl)cc1` [Compound 55], the pIC50 is above 7.30.

Regarding `O=C(N[C@H]1CCc2ccccc2C1)N1CCC[C@@H]1c1ncnn1Cc1ccc(Cl)cc1` [Compound 56], the pIC50 is above 7.30.

In the case of `O=C(N[C@H]1CCOc2cc(C(F)(F)F)ccc21)N1CCC[C@@H]1c1ncnn1Cc1ccc(Cl)cc1` [Compound 57], the pIC50 is above 7.30.

As for `Cc1cc(C(F)(F)F)cc(C)c1NC(=O)N1CCC[C@@H]1c1ncnn1Cc1ccc(Cl)cc1` [Compound 58], the pIC50 was above 7.30.

On to `Cc1noc(-c2ccccc2)c1NC(=O)N1CCC[C@@H]1c1ncnn1Cc1ccc(Cl)cc1` [Compound 60], for which the pIC50 was above 7.30.

Consider `Cc1cc(C(F)(F)F)cc(Br)c1NC(=O)N1CCC[C@@H]1c1ncnn1Cc1ccc(Cl)cc1` [Compound 61], for which the pIC50 is above 7.30.
